From patent publication US20230091047A1 (priority 2019, published 2023) come the findings set out here.

One series in a line: in vitro. Type of series: cell-based. The settings on record: human, HepG2 or HepG2.117 cells, 3-days incubation (unmarked values), ATPlite; mean value. An outline of the steps:
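Luminescent ATP quantitation served as the viability endpoint following a 3- or 4-day incubation with test compounds.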

In series [1] the test system is HBV (HepG2.117 cell line, inducibly HBV producing). The series is described as follows: Anti-HBV activity: intracellular HBV DNA by real-time PCR in HepG2.117 cells after 3 days of treatment. Type of series: cell-based, hepatitis B virus. To be noted: Hepatitis B virus, HepG2.117, 72 h, HepG2.117 cells, 3 days of treatment, intracellular HBV DNA by real-time PCR; mean value; read-out: EC50 (μM, mean value). An outline of the steps: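 Inducible HBV-producing HepG2.117 line (Tet-off); 3-day exposure to serially diluted compound after induction; real-time PCR of intracellular viral DNA.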

Consider `CC(C)Nc1nc2c(c(=O)n1-c1ccc(C(=O)NCCN3CCN(C)CC3)cc1)C[C@@H](C)N(C(=O)c1ccc(Cl)c(Cl)c1)C2` [Compound C208, 4-[(6R)-7-(3,4-dichlorobenzoyl)-6-methyl-4-oxo-2-[(propan-2-yl)amino]-5,6,7,8-tetrahydropyrido[3,4-d]pyrimidin-3(4H)-yl]-N-[2-(4-methylpiperazin-1-yl)ethyl]benzamide], for which the midpoint of cytotoxicity in the series “in vitro”, the CC50 at 3 days, lay at 26.3 µM. The EC50 in series [1] amounted to 0.62 µM.

As for `CC(C)Nc1nc2c(c(=O)n1-c1ccc(C(=O)NC3COC3)cc1)C[C@@H](C)N(C(=O)c1ccc(Cl)c(Cl)c1)C2` [Compound C209, 4-[(6R)-7-(3,4-dichlorobenzoyl)-6-methyl-4-oxo-2-[(propan-2-yl)amino]-5,6,7,8-tetrahydropyrido[3,4-d]pyrimidin-3(4H)-yl]-N-(oxetan-3-yl)benzamide], the CC50 at 3 days in “in vitro” was more than 50 µM. For the same molecule, the half-maximal effective concentration (EC50) in series [1] turned out to be 0.82 µM.

Consider `CNC(=O)c1ccc(-n2c(NC(C)C)nc3c(c2=O)CCN(C(=O)c2ccc(Cl)c(Cl)c2)C3)cc1Cl` [Compound C210, 2-chloro-4-[7-(3,4-dichlorobenzoyl)-4-oxo-2-[(propan-2-yl)amino]-5,6,7,8-tetrahydropyrido[3,4-d]pyrimidin-3(4H)-yl]-N-methylbenzamide], for which the cytotoxic concentration (CC50) at 3 days in the series “in vitro” is more than 50 µM. Besides, the EC50 in series [1] is 0.27 µM.

As to `Cc1noc(C)c1-c1ccc(-n2c(NC(C)C)nc3c(c2=O)C[C@@H](C)N(C(=O)c2ccc(Cl)c(Cl)c2)C3)cc1` [Compound C211, (6R)-7-(3,4-dichlorobenzoyl)-3-[4-(3,5-dimethyl-1,2-oxazol-4-yl)phenyl]-6-methyl-2-[(propan-2-yl)amino]-5,6,7,8-tetrahydropyrido[3,4-d]pyrimidin-4(3H)-one], the half-maximal cytotoxic concentration (CC50) at 3 days in “in vitro” was more than 50 µM. The EC50 in series [1] stood at 0.15 µM.

`CC(C)Nc1nc2c(c(=O)n1-c1ccc(-c3ccns3)cc1)C[C@@H](C)N(C(=O)c1ccc(Cl)c(Cl)c1)C2` [Compound C212, (6R)-7-(3,4-dichlorobenzoyl)-6-methyl-2-[(propan-2-yl)amino]-3-[4-(1,2-thiazol-5-yl)phenyl]-5,6,7,8-tetrahydropyrido[3,4-d]pyrimidin-4(3H)-one] yielded a half-maximal cytotoxic concentration (CC50) at 3 days in “in vitro” of more than 50 µM. For the same molecule, the EC50 in series [1] was 0.26 µM.

The molecule `CC(C)Nc1nc2c(c(=O)n1-c1ccc(-c3cnc[nH]3)cc1)C[C@@H](C)N(C(=O)c1ccc(Cl)c(Cl)c1)C2` [Compound C213, (6R)-7-(3,4-dichlorobenzoyl)-3-[4-(1H-imidazol-5-yl)phenyl]-6-methyl-2-[(propan-2-yl)amino]-5,6,7,8-tetrahydropyrido[3,4-d]pyrimidin-4(3H)-one] had a half-maximal cytotoxic concentration (CC50) at 3 days in the series “in vitro” of more than 50 µM. Besides, the EC50 in series [1] is 0.36 µM.

On to `CC(C)Nc1nc2c(c(=O)n1-c1ccc(C(=O)NCC(C)(C)C(=O)O)cc1)C[C@@H](C)N(C(=O)c1ccc(Cl)c(Cl)c1)C2` [Compound C214, 3-{4-[(6R)-7-(3,4-dichlorobenzoyl)-6-methyl-4-oxo-2-[(propan-2-yl)amino]-5,6,7,8-tetrahydropyrido[3,4-d]pyrimidin-3(4H)-yl]benzamido}-2,2-dimethylpropanoic acid], for which the 50% cytotoxic concentration (CC50) at 3 days in “in vitro” was more than 50 µM. Further, the EC50 in series [1] amounted to 14.6 µM.

Take `CC(C)Nc1nc2c(c(=O)n1-c1ccc(N3CCCC3CO)cc1)C[C@@H](C)N(C(=O)c1ccc(Cl)c(Cl)c1)C2` (stereo partly drawn) [Compound C215, (6R)-7-(3,4-dichlorobenzoyl)-3-{4-[2-(hydroxymethyl)pyrrolidin-1-yl]phenyl}-6-methyl-2-[(propan-2-yl)amino]-5,6,7,8-tetrahydropyrido[3,4-d]pyrimidin-4(3H)-one]: the cytotoxic concentration (CC50) at 3 days in the series “in vitro” came to 31.9 µM. Besides, in series [1], the EC50 worked out at 0.21 µM.

As to `CC(C)Nc1nc2c(c(=O)n1-c1ccc(N3CCOCC3)cc1)C[C@@H](C)N(C(=O)c1ccc(Cl)c(Cl)c1)C2` [Compound C218, (6R)-7-(3,4-dichlorobenzoyl)-6-methyl-3-[4-(morpholin-4-yl)phenyl]-2-[(propan-2-yl)amino]-5,6,7,8-tetrahydropyrido[3,4-d]pyrimidin-4(3H)-one], the half-maximal cytotoxic concentration (CC50) at 3 days in “in vitro” was more than 50 µM. The 50% effective concentration (EC50) in series [1] came to 0.16 µM.

As to `CNC(=O)c1ccc(-n2c(NC(C)C)nc3c(c2=O)CCN(C(=O)c2ccc(Cl)c(Cl)c2)C3)cc1F` [Compound C219, 4-[7-(3,4-dichlorobenzoyl)-4-oxo-2-[(propan-2-yl)amino]-5,6,7,8-tetrahydropyrido[3,4-d]pyrimidin-3(4H)-yl]-2-fluoro-N-methylbenzamide], the CC50 at 3 days in the series “in vitro” was more than 50 µM. For the same molecule, in series [1], the concentration for a half-maximal effect (EC50) came to 0.28 µM.

In turn, `CNC(=O)c1ccc(-n2c(NCc3ccc(OC)cc3)nc3c(c2=O)CCN(C(=O)c2ccc(Cl)c(Cl)c2)C3)cc1F` [Compound C220, 4-[7-(3,4-dichlorobenzoyl)-2-{[(4-methoxyphenyl)methyl]amino}-4-oxo-5,6,7,8-tetrahydropyrido[3,4-d]pyrimidin-3(4H)-yl]-2-fluoro-N-methylbenzamide] came in with a CC50 at 3 days in “in vitro” of more than 50 µM. The concentration giving a half-maximal response (EC50) in series [1] was 0.42 µM.

The molecule `Cc1cc(C(=O)N2CCc3c(nc(NC(C)C)n(-c4ccc(S(C)(=O)=O)cc4)c3=O)C2)ccc1Cl` [Compound C221, 7-(4-chloro-3-methylbenzoyl)-3-[4-(methanesulfonyl)phenyl]-2-[(propan-2-yl)amino]-5,6,7,8-tetrahydropyrido[3,4-d]pyrimidin-4(3H)-one] returned a CC50 at 3 days in the series “in vitro” of more than 50 µM. Also, the EC50 in series [1] came out at 1.58 µM.

In the case of `CC(C)Nc1nc2c(c(=O)n1-c1ccc(S(C)(=O)=O)cc1)CCN(C(=O)c1ccc(Cl)c(C(C)C)c1)C2` [Compound C222, 7-[4-chloro-3-(propan-2-yl)benzoyl]-3-[4-(methanesulfonyl)phenyl]-2-[(propan-2-yl)amino]-5,6,7,8-tetrahydropyrido[3,4-d]pyrimidin-4(3H)-one], the CC50 at 3 days in the series “in vitro” was more than 50 µM. Moreover, the half-maximal effective concentration (EC50) in series [1] was 1.45 µM.

Turning to `CC(C)Nc1nc2c(c(=O)n1-c1ccc(S(C)(=O)=O)cc1)CCN(C(=O)c1ccc(Cl)c(Cl)n1)C2` [Compound C223, 7-(5,6-dichloropyridine-2-carbonyl)-3-[4-(methanesulfonyl)phenyl]-2-[(propan-2-yl)amino]-5,6,7,8-tetrahydropyrido[3,4-d]pyrimidin-4(3H)-one], the CC50 at 3 days in “in vitro” was more than 50 µM. Moreover, the 50% effective concentration (EC50) in series [1] was more than 10 µM.

With `Cc1coc2ccc(C(=O)N3CCc4c(nc(NC(C)C)n(-c5ccc(S(C)(=O)=O)cc5)c4=O)C3)cc12` [Compound C224, 3-[4-(methanesulfonyl)phenyl]-7-(3-methyl-1-benzofuran-5-carbonyl)-2-[(propan-2-yl)amino]-5,6,7,8-tetrahydropyrido[3,4-d]pyrimidin-4(3H)-one], the CC50 at 3 days in the series “in vitro” is more than 50 µM. Besides, in series [1], the EC50 stood at 6.71 µM.

In the series “in vitro”, `CC(C)Nc1nc2c(c(=O)n1-c1ccc(S(C)(=O)=O)cc1)CCN(C(=O)c1ccc(Cl)c(C3CC3)c1)C2` [Compound C225, 7-(4-chloro-3-cyclopropylbenzoyl)-3-[4-(methanesulfonyl)phenyl]-2-[(propan-2-yl)amino]-5,6,7,8-tetrahydropyrido[3,4-d]pyrimidin-4(3H)-one] registered a CC50 at 3 days of more than 50 µM. Further, in series [1], the 50% effective concentration (EC50) is 3.46 µM.

In the case of `COC(=O)c1ccc(-n2c(NC(C)C)nc3c(c2=O)C[C@@H](C)N(C(=O)c2ccc(Cl)c(Cl)c2)C3)cn1` [Compound C226], the CC50 at 3 days in “in vitro” is more than 50 µM. In addition, the concentration for a half-maximal effect (EC50) in series [1] is 2.3 µM.

In “in vitro”, `CC(C)NC(=O)c1ccc(-n2c(NC(C)C)nc3c(c2=O)C[C@@H](C)N(C(=O)c2ccc(Cl)c(Cl)c2)C3)cn1` [Compound C227, 5-[(6R)-7-(3,4-dichlorobenzoyl)-6-methyl-4-oxo-2-[(propan-2-yl)amino]-5,6,7,8-tetrahydropyrido[3,4-d]pyrimidin-3(4H)-yl]-N-(propan-2-yl)pyridine-2-carboxamide] came in with a 50% cytotoxic concentration (CC50) at 3 days of more than 50 µM. In addition, the concentration giving a half-maximal response (EC50) in series [1] was 0.18 µM.

In “in vitro”, `CC(C)Nc1nc2c(c(=O)n1-c1ccc(Cl)nc1)C[C@@H](C)N(C(=O)c1ccc(Cl)c(Cl)c1)C2` [Compound C228, (6R)-3-(6-chloropyridin-3-yl)-7-(3,4-dichlorobenzoyl)-6-methyl-2-[(propan-2-yl)amino]-5,6,7,8-tetrahydropyrido[3,4-d]pyrimidin-4(3H)-one] came in with a 50% cytotoxic concentration (CC50) at 3 days of more than 50 µM. The concentration for a half-maximal effect (EC50) in series [1] turned out to be 0.27 µM.

In “in vitro”, `CC(C)Nc1nc2c(c(=O)n1-c1ccc3c(c1)C(=O)NC3)C[C@@H](C)N(C(=O)c1ccc(Cl)c(Cl)c1)C2` [Compound C229, (6R)-7-(3,4-dichlorobenzoyl)-6-methyl-3-(3-oxo-2,3-dihydro-1H-isoindol-5-yl)-2-[(propan-2-yl)amino]-5,6,7,8-tetrahydropyrido[3,4-d]pyrimidin-4(3H)-one] showed a CC50 at 3 days of more than 50 µM. The EC50 in series [1] was 0.11 µM.

For the molecule `CCOC(=O)c1ccc(-n2c(NC(CCO)C3CC3)nc3c(c2=O)C[C@@H](C)N(C(=O)c2ccc(Cl)c(Cl)c2)C3)cc1` (stereo partly drawn) [Compound C230, ethyl 4-[(6R)-2-[(1-cyclopropyl-3-hydroxypropyl)amino]-7-(3,4-dichlorobenzoyl)-6-methyl-4-oxo-5,6,7,8-tetrahydropyrido[3,4-d]pyrimidin-3(4H)-yl]benzoate], the 50% cytotoxic concentration (CC50) at 3 days in “in vitro” is more than 50 µM. Besides, the concentration giving a half-maximal response (EC50) in series [1] was determined as 1.7 µM.

As for `CC(C)Nc1nc2c(c(=O)n1-c1ccc3c(c1)CNC3=O)C[C@@H](C)N(C(=O)c1ccc(Cl)c(Cl)c1)C2` [Compound C231, (6R)-7-(3,4-dichlorobenzoyl)-6-methyl-3-(1-oxo-2,3-dihydro-1H-isoindol-5-yl)-2-[(propan-2-yl)amino]-5,6,7,8-tetrahydropyrido[3,4-d]pyrimidin-4(3H)-one], the cytotoxic concentration (CC50) at 3 days in the series “in vitro” was more than 50 µM. Also, in series [1], the EC50 came out at 0.15 µM.
